How the values were obtained:
SK-MEL-28 = test: cells; conditions: Homo sapiens, SK-MEL-28, 48 h
SNB-75 = test: cells; conditions: Homo sapiens, SNB-75, 48 h
UACC-62 = conditions: 48 hours, five 10-fold dilutions starting from 100 μM
HCC-2998 = conditions: 48 hours, five 10-fold dilutions starting from 100 μM
UACC-257 = test: cells; conditions: Homo sapiens, UACC-257, 48 h
EKVX = test: cells; conditions: Homo sapiens, 48 h
ACHN = conditions: 48 hours, five 10-fold dilutions starting from 100 μM
RPMI-8226 = test: NCI screen antiproliferative activity, sulforhodamine B, Leukemia panel; format: cell-based, human; conditions: 48 hours, five 10-fold dilutions starting from 100 μM
SW-620 = test: NCI screen antiproliferative activity, sulforhodamine B, Colon Cancer panel; format: cell-based, human; conditions: 48 hours, five 10-fold dilutions starting from 100 μM
OVCAR-3 [1] = conditions: 48 hours, five 10-fold dilutions starting from 100 μM
786-0 [2] = test: cells; conditions: Homo sapiens, 786-0, 48 h
T-47D = test: cells; conditions: Homo sapiens, T47D, 48 h
A549/ATCC = conditions: 48 hours, five 10-fold dilutions starting from 100 μM
COLO 205 = test: NCI screen antiproliferative activity, sulforhodamine B, Colon Cancer panel; format: cell-based, human; conditions: 48 hours, five 10-fold dilutions starting from 100 μM
SK-MEL-5 = test: NCI screen antiproliferative activity, sulforhodamine B, Melanoma panel; format: cell-based, human; conditions: 48 hours, five 10-fold dilutions starting from 100 μM
HCT-116 = conditions: 48 hours, five 10-fold dilutions starting from 100 μM
786-0 [3] = conditions: 48 hours, five 10-fold dilutions starting from 100 μM
HT29 = conditions: 48 hours, five 10-fold dilutions starting from 100 μM
MDA-MB-231/ATCC [4] = test: cells; conditions: Homo sapiens, MDA-MB-231, 48 h
OVCAR-8 = test: cells; conditions: Homo sapiens, OVCAR-8, 48 h
NCI-H460 [5] = conditions: 48 hours, five 10-fold dilutions starting from 100 μM
BT-549 [6] = test: cells; conditions: Homo sapiens, BT-549, 48 h
SNB-19 = test: cells; conditions: Homo sapiens, SNB-19, 48 h
NCI-ADR-RES = conditions: 48 hours, five 10-fold dilutions starting from 100 μM
PC-3 = test: cells; conditions: Homo sapiens, PC-3, 48 h
U251 [7] = test: cells; conditions: Homo sapiens, U-251, 48 h
CAKI-1 = conditions: 48 hours, five 10-fold dilutions starting from 100 μM
MDA-MB-231/ATCC [8] = conditions: 48 hours, five 10-fold dilutions starting from 100 μM
NCI-H522 = test: cells; conditions: Homo sapiens, NCI-H522, 48 h
OVCAR-5 = test: cells; conditions: Homo sapiens, OVCAR-5, 48 h
OVCAR-3 [9] = test: cells; conditions: Homo sapiens, OVCAR-3, 48 h
NCI-H23 = conditions: 48 hours, five 10-fold dilutions starting from 100 μM
UO-31 = test: cells; conditions: Homo sapiens, UO-31, 48 h
SF-539 [10] = test: cells; conditions: Homo sapiens, SF-539, 48 h
SF-295 = conditions: 48 hours, five 10-fold dilutions starting from 100 μM
U251 [11] = conditions: 48 hours, five 10-fold dilutions starting from 100 μM
SF-539 [12] = conditions: 48 hours, five 10-fold dilutions starting from 100 μM
SK-MEL-2 = conditions: 48 hours, five 10-fold dilutions starting from 100 μM
M14 = conditions: 48 hours, five 10-fold dilutions starting from 100 μM
NCI-H460 [13] = test: cells; conditions: Homo sapiens, NCI-H460, 48 h
BT-549 [14] = conditions: 48 hours, five 10-fold dilutions starting from 100 μM
HOP-92 = conditions: 48 hours, five 10-fold dilutions starting from 100 μM
OVCAR-4 = test: cells; conditions: Homo sapiens, OVCAR-4, 48 h

With `CCCCCCCCNCCC[C@@H](C)[C@H]1CC[C@H]2[C@@H]3[C@H](OCCCN)C[C@@H]4C[C@H](OCCCN)CC[C@]4(C)[C@H]3C[C@H](OCCCN)[C@]12C` [CSA-13] the GI50 (SK-MEL-28) was 0.291 µM, the CC50 (SK-MEL-28; read-out: LC50) was 5.46 µM and the GI50 (SNB-75) was 1.76 µM. For the same molecule, the CC50 (SNB-75; read-out: LC50) was 57.2 µM, the TGI (UACC-62) was 2.29 µM and the TGI (HCC-2998) was 3.98 µM. The GI50 (UACC-257) was 2.71 µM, the CC50 (UACC-257; read-out: LC50) was 97.9 µM and the GI50 (EKVX) was 1.32 µM. For the same molecule, the CC50 (EKVX; read-out: LC50) was 8.62 µM, the TGI (ACHN) was 3.68 µM and the TGI (RPMI-8226) was 0.911 µM. The GI50 (RPMI-8226; Homo sapiens) was 0.266 µM, the TGI (SW-620) was 2.67 µM and the GI50 (SW-620; Homo sapiens) was 1.16 µM. It also gave a TGI (OVCAR-3 [1]) of 14.8 µM, a GI50 (786-0 [2]) of 0.837 µM and a CC50 (786-0 [2]; read-out: LC50) of 5.4 µM. The GI50 (T-47D) was 1.92 µM, the CC50 (T-47D; read-out: LC50) was greater than 100 µM and the TGI (A549/ATCC) was 9.33 µM. For the same molecule, the TGI (COLO 205) was 3.02 µM, the GI50 (COLO 205; Homo sapiens) was 1.27 µM and the TGI (SK-MEL-5) was 1.92 µM. The GI50 (SK-MEL-5; Homo sapiens) was 0.504 µM, the TGI (HCT-116) was 2.61 µM and the TGI (786-0 [3]) was 2.26 µM. The TGI (HT29) was 5.31 µM, the GI50 (MDA-MB-231/ATCC [4]) was 0.422 µM and the CC50 (MDA-MB-231/ATCC [4]; read-out: LC50) was greater than 100 µM. The GI50 (OVCAR-8) was 1.64 µM, the CC50 (OVCAR-8; read-out: LC50) was 9.82 µM and the TGI (NCI-H460 [5]) was 3.92 µM. For the same molecule, the GI50 (BT-549 [6]) was 1.07 µM, the CC50 (BT-549 [6]; read-out: LC50) was greater than 100 µM and the GI50 (SNB-19) was 1.49 µM. The CC50 (SNB-19; read-out: LC50) was 89.3 µM, the TGI (NCI-ADR-RES) was 5.33 µM and the GI50 (PC-3) was 3.74 µM. For the same molecule, the CC50 (PC-3; read-out: LC50) was greater than 100 µM, the GI50 (U251 [7]) was 1.37 µM and the CC50 (U251 [7]; read-out: LC50) was 6.81 µM. For the same molecule, the TGI (CAKI-1) was 10.6 µM, the TGI (MDA-MB-231/ATCC [8]) was 4.08 µM and the GI50 (NCI-H522) was 2.59 µM. For the same molecule, the CC50 (NCI-H522; read-out: LC50) was greater than 100 µM, the GI50 (OVCAR-5) was 1.55 µM and the CC50 (OVCAR-5; read-out: LC50) was 58.4 µM. For the same molecule, the GI50 (OVCAR-3 [9]) was 2.24 µM, the CC50 (OVCAR-3 [9]; read-out: LC50) was 88 µM and the TGI (NCI-H23) was 3.12 µM. The GI50 (UO-31) was 1.49 µM, the CC50 (UO-31; read-out: LC50) was greater than 100 µM and the GI50 (SF-539 [10]) was 0.318 µM. For the same molecule, the CC50 (SF-539 [10]; read-out: LC50) was 4.89 µM, the TGI (SF-295) was 2.66 µM and the TGI (U251 [11]) was 3.05 µM. It also gave a TGI (SF-539 [12]) of 1.41 µM, a TGI (SK-MEL-2) greater than 100 µM and a TGI (M14) of 3.52 µM. For the same molecule, the GI50 (NCI-H460 [13]) was 1.21 µM, the CC50 (NCI-H460 [13]; read-out: LC50) was 15.5 µM and the TGI (BT-549 [14]) was 3.28 µM. It also gave a TGI (HOP-92) of 21.2 µM, a GI50 (OVCAR-4) of 5.51 µM and a CC50 (OVCAR-4; read-out: LC50) of 83 µM.
